Where “and” joins values, the source holds several entries; their conditions need not be identical. Equal entries are not always repeated.
Assays:
Experiment in all cases: Growth inhibitory effect, one hour exposure (IncuCyte Zoom)
Type in all cases: cell-based, human
[1] = test system: HCT-116; settings: HCT-116, Colon
Protocol: (§1) Cancer cell lines and immortalized human cell lines were cultured in 1640 tissue culture medium (Corning, USA) with 10% fetal bovine serum in a standard tissue culture condition of 37° C. and 5% CO2.
(§2) For primary hepatocytes, the seeded cells were monitored for up to 48 hours either without any treatment (as a control) or with various types of treatments. For primary keratinocytes, cells in 48-well plates were monitored either without any treatment or with various types of treatment for up to 96 hours. For HepG2, cells 96-well plates were monitored either without any treatment or with various types of treatments for up to 48 hours. The IncuCyte Zoom was set to take a set of images at fixed locations (4 per well for 96-well plates and 16 per well for 48-well plates and 12-well plates) every three hours.
(§3) The one-hour exposure is intended to simulate the transient high concentrations within the liver as the results of either the first pass effects of some orally administered drugs, or of locally delivered drugs, anticipating that such a short term exposure is nevertheless sufficient to affect certain cell surface receptors without causing any significant off-target effects due to intracellular absorption. Such a strategy would also reduce false hits due to reversible cell cycle arrests.
(§4) To address this possibility, we investigated whether other cell lines, including other HCC cell lines, cell lines from other type of cancers, as well as non-cancer immortalized/transformed cell lines, were also sensitive to Triptonide. Specifically, a total of 51 human cancer cell lines, representing 10 types of human cancers (6 non-small cell lung cancer cell lines, 5 colon cancer cell lines, 5 central nerve system cancer cell lines, 8 Melanomas cell lines, 4 ovarian cancer cell lines, 4 renal cancer cell lines, 2 prostate cancer cell lines, 3 breast cancer cell lines, 7 hepatocellular carcinoma cell lines, and 4 gastric cancer cell lines) were analyzed.

[2] = test system: UACC-257; settings: UACC-257, Melanoma
Protocol: as §1, §2, §3, §4

[3] = test system: A498; settings: A498, Renal
Protocol: as §1, §2, §3, §4

[4] = test system: UACC-62; settings: UACC-62, Melanoma
Protocol: as §1, §2, §3, §4

[5] = test system: CAKI-1; settings: CAKI-1, Renal
Protocol: as §1, §2, §3, §4

[6] = test system: SK-OV-3; settings: SK-OV-3, Ovarian
Protocol: as §1, §2, §3, §4

[7] = test system: SF-268; settings: SF-268, CNS
Protocol: as §1, §2, §3, §4

[8] = test system: SNU-449; settings: SNU-449, Hepatocellular carcinoma
Protocol: as §1, §2, §3, §4

[9] = test system: HCT-15; settings: HCT-15, Colon
Protocol: as §1, §2, §3, §4

[10] = test system: IGR-OV1; settings: IGR-OV1, Ovarian
Protocol: as §1, §2, §3, §4

[11] = test system: SNB-19; settings: SNB-19, CNS
Protocol: as §1, §2, §3, §4

[12] = test system: HepG2
Protocol: as §1, §2, §3, §4

[13] = test system: MDA-MB-435; settings: MDA-MB-435, Melanoma
Protocol: as §1, §2, §3, §4

[14] = test system: OVCAR-8; settings: OVCAR-8, Ovarian
Protocol: as §1, §2, §3, §4

[15] = test system: M14; settings: M14, Melanoma
Protocol: as §1, §2, §3, §4

[16] = test system: SK-MEL-2; settings: SK-MEL-2, Melanoma
Protocol: as §1, §2, §3, §4

[17] = test system: HOP-62; settings: HOP-62, Non-Small Cell Lung
Protocol: as §1, §2, §3, §4

[18] = test system: NCI/ADR-RES; settings: Ovarian
Protocol: as §1, §2, §3, §4

[19] = test system: NCI-H522; settings: NCI-H522, Non-Small Cell Lung
Protocol: as §1, §2, §3, §4

[20] = test system: SW-620; settings: SW-620, Colon
Protocol: as §1, §2, §3, §4

[21] = test system: MGC803; settings: MGC803, Gastric cancer
Protocol: as §1, §2, §3, §4

[22] = test system: SGC7901; settings: SGC7901, Gastric cancer
Protocol: as §1, §2, §3, §4

[23] = test system: OVCAR-3; settings: OVCAR-3, Ovarian
Protocol: as §1, §2, §3, §4

[24] = test system: MALME-3M; settings: Melanoma
Protocol: as §1, §2, §3, §4

[25] = test system: SN12C; settings: Renal
Protocol: as §1, §2, §3, §4

[26] = test system: EKVX; settings: Non-Small Cell Lung
Protocol: as §1, §2, §3, §4

[27] = test system: NCI-H23; settings: NCI-H23, Non-Small Cell Lung
Protocol: as §1, §2, §3, §4

[28] = test system: NCI-H226; settings: NCI-H226, Non-Small Cell Lung
Protocol: as §1, §2, §3, §4

[29] = test system: SK-MEL-28; settings: SK-MEL-28, Melanoma
Protocol: as §1, §2, §3, §4

[30] = test system: ACHN; settings: Renal
Protocol: as §1, §2, §3, §4

[31] = test system: OVCAR-5; settings: OVCAR-5, Ovarian
Protocol: as §1, §2, §3, §4

[32] = test system: LOX IMV1; settings: LOX IMV1, Melanoma
Protocol: as §1, §2, §3, §4

[33] = test system: DU-145; settings: DU-145, Prostate
Protocol: as §1, §2, §3, §4

Question: For CC(C)[C@]12O[C@H]1[C@@H]1O[C@@]13[C@@]1(C)CCC4=C(COC4=O)[C@@H]1C[C@@H]1O[C@@]13C2=O [Triptonide], which IC50 [1] is on record?
Answer: 2.57 µM

Question: What about the IC50 [2] of the same molecule?
Answer: 16 µM

Question: What about the IC50 [3] of the same molecule?
Answer: 4.34 µM

Question: What about the IC50 [4] of the same molecule?
Answer: 9.35 µM

Question: And the IC50 [5]?
Answer: 6.15 µM

Question: And the IC50 [6]?
Answer: 3.89 µM

Question: What about the IC50 [7] of the same molecule?
Answer: 11.8 µM

Question: And the IC50 [8]?
Answer: 4.92 µM

Question: And the IC50 [9]?
Answer: 1.18 µM

Question: What about the IC50 [10] of the same molecule?
Answer: 4.66 µM

Question: And the IC50 [11]?
Answer: 51 µM

Question: And the “effect on growth of HepG2” value ([12]; 4 µM or higher for one hour)?
Answer: significant growth inhibition

Question: And the “effect on cell density of HepG2” value ([12]; 16 µM and above, one hour)?
Answer: apparent reduction in cell density

Question: And the IC50 ([12]; HepG2, Hepatocellular carcinoma, one hour exposure)?
Answer: 7.5 µM and 7.51 µM

Question: And the IC50 [13]?
Answer: 1.91 µM

Question: What about the IC50 [14] of the same molecule?
Answer: 7.29 µM

Question: And the IC50 [15]?
Answer: 4.93 µM

Question: What about the IC50 [16] of the same molecule?
Answer: 0.608 µM

Question: And the IC50 [17]?
Answer: 9.23 µM

Question: What about the IC50 [18] of the same molecule?
Answer: 8.34 µM

Question: And the IC50 [19]?
Answer: 23.1 µM

Question: And the IC50 [20]?
Answer: 11.6 µM

Question: And the IC50 [21]?
Answer: 2.58 µM

Question: What about the IC50 [22] of the same molecule?
Answer: 12 µM

Question: And the IC50 [23]?
Answer: 4.9 µM

Question: And the IC50 [24]?
Answer: 3.44 µM

Question: And the IC50 [25]?
Answer: 1.07 µM

Question: What about the IC50 [26] of the same molecule?
Answer: 2.38 µM

Question: And the IC50 [27]?
Answer: 0.41 µM and 0.415 µM

Question: And the IC50 [28]?
Answer: 11.2 µM

Question: What about the IC50 [29] of the same molecule?
Answer: 17.8 µM

Question: And the IC50 [30]?
Answer: 15 µM

Question: What about the IC50 [31] of the same molecule?
Answer: 8.23 µM

Question: And the IC50 [32]?
Answer: 1.77 µM

Question: What about the IC50 [33] of the same molecule?
Answer: 2.38 µM

From patent US20230125429A1 (priority 2017, published 2023)
